We go through 26 compounds from PubChem BioAssay AID624167 (Sanford-Burnham Center for Chemical Genomics, 2012).

Assay [1] deals with PEG-3 (UniProt Q6IN02). Description: inhibition of PEG-3 promoter-driven reporter – cell-based, HeLa, luciferase, CREF/GAPDH counter-screen panel, dose response (AID 624167). The note with it: HeLa PEG-Prom luciferase reporter, overnight, CREF/GAPDH counter-screens, mean of runs. For orientation: Counterscreens check selectivity or assay interference.
The test system of assay [2] is PEG-3. The description is as above. The note with it: HeLa PEG-Prom luciferase reporter, overnight, CREF/GAPDH counter-screens. For orientation: In a reporter assay the amount or activity of a reporter protein is the signal.
The mark [3] stands for this setting: run 1, dose range 1, individual replicate IC50 per panel.
Where [4] appears, read: run 2, dose range 1, individual replicate IC50 per panel.

The source made the active and inactive calls.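 Rule for the calls: active = mean IC50 for reducing PEG3 promoter reporter signal at or below a set limit, with IC50 above the limit in both counter screens; inactive = the rest, including counter screen hits.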

Chain of PEG-3 (UniProt Q6IN02) (Q6IN02 whole entry, looked up): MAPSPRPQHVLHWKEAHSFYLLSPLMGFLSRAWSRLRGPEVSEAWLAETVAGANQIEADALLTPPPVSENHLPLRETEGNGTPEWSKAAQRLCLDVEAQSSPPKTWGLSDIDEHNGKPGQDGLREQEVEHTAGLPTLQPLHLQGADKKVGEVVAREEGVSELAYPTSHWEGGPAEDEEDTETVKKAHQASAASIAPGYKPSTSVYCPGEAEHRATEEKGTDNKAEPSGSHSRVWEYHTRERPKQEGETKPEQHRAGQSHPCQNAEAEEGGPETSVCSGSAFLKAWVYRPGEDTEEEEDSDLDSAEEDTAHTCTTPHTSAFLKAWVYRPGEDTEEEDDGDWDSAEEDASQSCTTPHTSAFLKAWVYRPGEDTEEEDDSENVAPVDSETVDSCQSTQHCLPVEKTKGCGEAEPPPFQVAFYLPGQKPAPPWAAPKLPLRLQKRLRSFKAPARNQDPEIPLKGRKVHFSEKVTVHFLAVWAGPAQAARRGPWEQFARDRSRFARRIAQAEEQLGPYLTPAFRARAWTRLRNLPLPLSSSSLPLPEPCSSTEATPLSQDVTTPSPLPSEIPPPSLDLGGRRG

What is called IC50 is the concentration needed to halve the response being measured. As to `C[C@@H]1O[C@@H](O[C@@H]2C=C3CCC4C(CC[C@]5(C)[C@@H](c6ccc(=O)oc6)CC[C@]45O)[C@@]3(C)CC2)[C@H](O)[C@H](O)[C@H]1O` (stereo partly drawn), the figures for the IC50 on PEG-3 [1], in the assay on PEG-3 [2] (setting [3]) and in the assay with PEG-3 [2] (setting [4]) were 0.45 µM, 0.709 µM and below 0.2 µM, respectively.

For `COc1ccc(-c2nc(NC(=O)c3n[nH]c(=O)c4ccccc34)sc2C)cc1`, on PEG-3 [1], the IC50 result was “inactive”. Moreover, the IC50 was 0.904 µM with PEG-3 [2] (setting [3]) and above 100 µM in the assay on PEG-3 [2] (setting [4]).

`CC(=O)OCCNc1cc(SCc2ccco2)c2nonc2c1[N+](=O)[O-]`: on PEG-3 [1], the IC50 entry was “inactive”. Besides, the 50% inhibitory concentration (IC50) in the assay on PEG-3 [2] (setting [3]) turned out to be 26.8 µM; with PEG-3 [2] (setting [4]) it was 20.4 µM.

For `O=C(CCl)N1N=C(c2ccco2)CC1c1cccs1` (stereo not drawn), the IC50 result at PEG-3 [1] was “inactive”. In addition, the IC50 in the assay with PEG-3 [2] (setting [3]) was 24.2 µM; with PEG-3 [2] (setting [4]) it was 30.4 µM.

On to `N=c1n(CCN2CCCC2)c2ccccc2n1CC(O)c1ccc(Cl)c(Cl)c1` (stereo not drawn), for which the IC50 at PEG-3 [1] was 13.4 µM; in the assay with PEG-3 [2] (setting [3]), 17.7 µM; in the assay on PEG-3 [2] (setting [4]), 9.03 µM.

Regarding `Cc1cc(Sc2ncnc(N)c2[N+](=O)[O-])ncn1`, the IC50 at PEG-3 [1] was 15.2 µM; with PEG-3 [2] (setting [3]) it was 18.7 µM; in the assay on PEG-3 [2] (setting [4]), 11.7 µM.

As to `CN(C(=O)OC(C)(C)C)c1ccc(-c2nc3ccccc3s2)cc1`, the figures for the 50% inhibitory concentration (IC50) at PEG-3 [1], with PEG-3 [2] (setting [3]) and in the assay with PEG-3 [2] (setting [4]) were 2.31 µM, below 0.2 µM and 4.43 µM, respectively.

As for `COCCn1c(C)cc(C(=O)COC(=O)c2ccccc2Br)c1C`, at PEG-3 [1], the IC50 result is “inactive”. The figures for the IC50 in the assay with PEG-3 [2] (setting [3]) and in the assay with PEG-3 [2] (setting [4]) were 32.1 µM and 53.3 µM, respectively.

In the case of `COc1cccc(C2CC3C(=O)C=CC2N3Cc2ccccc2)c1` (stereo not drawn), the figures for the half-inhibitory concentration (IC50) on PEG-3 [1], in the assay with PEG-3 [2] (setting [3]) and in the assay on PEG-3 [2] (setting [4]) were 13 µM, 11.9 µM and 14.1 µM, respectively.

In the case of `C=C(C)Cn1c(SCC(=O)N/N=C/c2c(O)ccc3ccccc23)nc2ccccc2c1=O`, the IC50 on PEG-3 [1] was > 100 µM (inactive); in the assay with PEG-3 [2] (setting [3]), above 100 µM; in the assay with PEG-3 [2] (setting [4]), above 100 µM.

In the case of `CC1=CC(C)[C@H](/C=N/n2c(=O)[nH]c3c([nH]c4ccc(Br)cc43)c2=O)C(C)C1` (stereo partly drawn), the IC50 result at PEG-3 [1] is “inactive”. The IC50 with PEG-3 [2] (setting [3]) was above 100 µM; with PEG-3 [2] (setting [4]), 5.42 µM.

As to `Cc1ccc(-c2nnc(N3CCN(c4ccccn4)CC3)c3ccccc23)cc1`, the IC50 is 18.2 µM on PEG-3 [1], 20.9 µM in the assay with PEG-3 [2] (setting [3]) and 15.4 µM with PEG-3 [2] (setting [4]).

Take `CN(C)CC1CCC/C(=C/c2ccc(Cl)cc2)C1=O` (stereo not drawn): the results for the half-inhibitory concentration (IC50) on PEG-3 [1], in the assay on PEG-3 [2] (setting [3]) and in the assay on PEG-3 [2] (setting [4]) were 11.1 µM, 14.5 µM and 7.74 µM, respectively.

On to `OCCNCc1cc(Br)ccc1OCc1ccc(Cl)cc1Cl`, for which the IC50 on PEG-3 [1] is 17.4 µM; in the assay on PEG-3 [2] (setting [3]) it was 16.9 µM; in the assay with PEG-3 [2] (setting [4]), 17.9 µM.

As to `COc1ccccc1CN(C)C(=O)c1cc(-c2cccs2)nc2ccccc12`, the results for the IC50 on PEG-3 [1], in the assay with PEG-3 [2] (setting [3]) and in the assay on PEG-3 [2] (setting [4]) were 13.5 µM, 14.3 µM and 12.7 µM, respectively.

As to `COc1ccc(S(=O)(=O)N2c3ccccc3OCC2c2ccccc2)cc1` (stereo not drawn), the IC50 at PEG-3 [1] is > 100 µM (inactive); with PEG-3 [2] (setting [3]) it was above 100 µM; in the assay on PEG-3 [2] (setting [4]), above 100 µM.

For the compound `COc1ccccc1CNC(=O)c1c(N)n(CCCN2CCOCC2)c2nc3ccccc3nc12`, the figures for the IC50 on PEG-3 [1], in the assay on PEG-3 [2] (setting [3]) and in the assay on PEG-3 [2] (setting [4]) were 14.1 µM, 18.3 µM and 9.79 µM, respectively.

In the case of `CCOC(=O)c1ccc(NC(=O)C2CCCN(S(=O)(=O)c3ccc(F)cc3)C2)cc1` (stereo not drawn), the IC50 result at PEG-3 [1] was “inactive”. The results for the half-inhibitory concentration (IC50) with PEG-3 [2] (setting [3]) and in the assay on PEG-3 [2] (setting [4]) were 20.9 µM and 43.1 µM, respectively.

Consider `COc1ccc(/C=C/C(=O)c2ccc3c(c2)OCCO3)cc1[N+](=O)[O-]`, for which the values for the 50% inhibitory concentration (IC50) at PEG-3 [1], in the assay on PEG-3 [2] (setting [3]) and in the assay with PEG-3 [2] (setting [4]) were 17 µM, 17.2 µM and 16.7 µM, respectively.

On to `COc1ccc(OC)c(-c2cc(C(=O)N3CCN(c4ncccn4)CC3)c3ccccc3n2)c1`, for which, on PEG-3 [1], the IC50 entry was “inactive”. For the same compound, the 50% inhibitory concentration (IC50) in the assay on PEG-3 [2] (setting [3]) was 35 µM; with PEG-3 [2] (setting [4]) it was above 100 µM.

Turning to `Cc1cnc(NC(=O)C2CC(=O)N(c3cccc(Cl)c3)C2)s1` (stereo not drawn), the values for the half-inhibitory concentration (IC50) on PEG-3 [1], with PEG-3 [2] (setting [3]) and with PEG-3 [2] (setting [4]) were 13.6 µM, 23.5 µM and 3.78 µM, respectively.

`O=Cc1cn(Cc2cccc(F)c2)c2ccccc12`: at PEG-3 [1], the IC50 result was “inactive”. Besides, the IC50 in the assay on PEG-3 [2] (setting [3]) was 22.6 µM; in the assay on PEG-3 [2] (setting [4]), 38.8 µM.

For the compound `CN(CC(=O)Nc1ccc(Cl)c(C(F)(F)F)c1)C(=O)c1cc(-c2ccncc2)nc2ccccc12`, the IC50 on PEG-3 [1] is 16.1 µM; in the assay on PEG-3 [2] (setting [3]), 16.2 µM; in the assay with PEG-3 [2] (setting [4]), 15.9 µM.

On to `COc1cccc(-c2sc3ccc(OC)cc3c2-c2ccc(OCCN(C)C)cc2)c1`, for which the IC50 was 15.5 µM on PEG-3 [1], 15.7 µM in the assay on PEG-3 [2] (setting [3]) and 15.2 µM in the assay with PEG-3 [2] (setting [4]).

In the case of `CC(C)(C)n1nnnc1C(CCc1ccccc1)N1CCC(n2c(=O)[nH]c3ccccc32)CC1` (stereo not drawn), on PEG-3 [1], the IC50 entry was “inactive”. Also, the IC50 with PEG-3 [2] (setting [3]) is 18.3 µM; in the assay on PEG-3 [2] (setting [4]), 24.7 µM.

In the case of `COc1ccc(CN2CCN(C(=O)c3cc(-c4cccnc4)nc4ccc(Cl)cc34)CC2)c(OC)c1OC`, the IC50 result at PEG-3 [1] is “inactive”. Further, the concentration for half-maximal inhibition (IC50) turned out to be 52.4 µM in the assay with PEG-3 [2] (setting [3]) and 16.4 µM with PEG-3 [2] (setting [4]).
